According to patent US9018214B2, “Bicyclic heterocycle compounds and their uses in therapy” (Astex Therapeutics Limited, priority 2011, dated 2015):
Where a name gives a salt, the structure may show the parent alone. Read-outs that look alike come from different tables or passages of the source.

Columns and labels:
[1] = molecular target: BIR3 domain of human XIAP (residues 252-350) (Homo sapiens (Human), UniProt P98170); assay: XIAP in vitro competitive displacement binding assay (fluorescence polarization); settings: for IC50: read-out: IC50 or PI Xiap: IC50; for inhibition at 0.04 µM: 1 h, read-out: IC50 or PI Xiap: PI
[2] = system: EVSA-T (human breast carcinoma); assay: Anti-proliferative activity, Alamar Blue assay, EVSA-T; format: cell-based; settings: Homo sapiens, EVSA-T, read-out: EVSA-T prolif (EC50)
[3] = molecular target: BIR3 domain of human cIAP-1 (residues 267-363) (Homo sapiens (Human), UniProt Q13490); assay: cIAP-1 in vitro competitive displacement binding assay (fluorescence polarization; Probe A AVPIK(5&6FAM)-amide or Probe B AbuRPFK(5&6FAM)-amide); settings: for inhibition at […]: 3 h, read-out: IC50 or PI cIAP1: PI
[4] = Probe B AbuRPFK(5&6FAM)-amide, read-out: IC50 or PI cIAP1: IC50
[5] = read-out: IC50 or PI cIAP1: IC50

Row | Compound | IC50 [1] [nM] | EC50 ([2]; 72 hours, Alamar Blue) [nM] | IC50 [3] [nM] | inhibition at […] [3] [%] | EC50 ([2]; 72 h) [nM] | further results
1 | C[C@@H]1CN(CC(=O)N2CC(C)(C)c3cnc(C(F)(F)C4CC4)cc32)[C@@H](CN2CCCC2=O)CN1 [Example 212, 1-{[(2R,5R)-1-{2-[6-(Cyclopropyldifluoromethyl)-3,3-dimethyl-1H,2H,3H-pyrrolo[3,2-c]pyridin-1-yl]-2-oxoethyl}-5-methylpiperazin-2-yl]methyl}pyrrolidin-2-one hydrochloride] | 45 | 270 | < 1000 |  |  | IC50 [3, 4]: 14 nM
2 | C[C@@H]1CN(CC(=O)N2CC(C)(C)c3cnc(C(F)(F)c4ccccc4)cc32)[C@@H](CN2CC[C@@H](F)C2)CN1 [Example 213, 1-{6-[Difluoro(phenyl)methyl]-3,3-dimethyl-1H,2H,3H-pyrrolo[3,2-c]pyridin-1-yl}-2-[(2R,5R)-2-{[(3R)-3-fluoropyrrolidin-1-yl]methyl]-5-methylpiperazin-1-yl]ethan-1-one dihydrochloride] |  | 6 |  | 82 |  | inhibition at 0.04 µM [1]: 61%
3 | CCC(F)(F)c1cc2c(cn1)C(C)(C)CN2C(=O)CN1C[C@@H](C)NC[C@@H]1CN1CC[C@@H](F)C1 [Example 214, 1-[6-(1,1-Difluoropropyl)-3,3-dimethyl-1H,2H,3H-pyrrolo[3,2-c]pyridin-1-yl]-2-[(2R,5R)-2-{[(3R)-3-fluoropyrrolidin-1-yl]methyl]-5-methylpiperazin-1-yl]ethan-1-one hydrochloride] | 82 | 190 | < 1000 |  |  | IC50 [3, 4]: 24 nM
4 | C[C@@H]1CN(CC(=O)N2CC(C)(C)c3cnc(C(F)(F)c4ccccc4)cc32)[C@@H](CN2C(=O)CCC2=O)CN1 [Example 218, 1-{[(2R,5R)-1-(2-{6-[Difluoro(phenyl)methyl]-3,3-dimethyl-1H,2H,3H-pyrrolo[3,2-c]pyridin-1-yl}-2-oxoethyl)-5-methylpiperazin-2-yl]methyl}pyrrolidine-2,5-dione dihydrochloride] | 61 |  |  | 78 | 65 | 
5 | C[C@@H]1CN(CC(=O)N2CC(C)(C)c3cnc(Cc4ccc(F)cc4F)cc32)[C@@H](CN2CCOCC2)CN1 [Example 219, 1-{6-[(2,4-Difluorophenyl)methyl]-3,3-dimethyl-1H,2H,3H-pyrrolo[3,2-c]pyridin-1-yl}-2-[(2R,5R)-5-methyl-2-(morpholin-4-ylmethyl)piperazin-1-yl]ethan-1-one dihydrochloride] | 53 |  |  | 93 | 5 | 
6 | C[C@@H]1CN(CC(=O)N2CC(C)(C)c3ncc(C(F)(F)c4ccccc4)cc32)[C@@H](CN2CC[C@@H](F)C2)CN1 [Example 221, 1-{6-[Difluoro(phenyl)methyl]-3,3-dimethyl-1H,2H,3H-pyrrolo[3,2-b]pyridin-1-yl}-2-[(2R,5R)-2-{[(3R)-3-fluoropyrrolidin-1-yl]methyl}-5-methylpiperazin-1-yl]ethan-1-one dihydrochloride] | 73 |  |  | 78 | 54 | 
7 | C[C@@H]1CN(CC(=O)N2CC(C)(C)c3ncc(C(C)(F)F)cc32)[C@@H](CN2CCc3cccnc32)CN1 [Example 222, 1-[6-(1,1-Difluoroethyl)-3,3-dimethyl-1H,2H,3H-pyrrolo[3,2-b]pyridin-1-yl]-2-[(2R,5R)-5-methyl-2-{1H,2H,3H-pyrrolo[2,3-b]pyridin-1-ylmethyl}piperazin-1-yl]ethan-1-one dihydrochloride] | 220 |  | < 1000 |  | 9600 | IC50 [3, 5]: 140 nM
8 | CCCC(F)(F)c1cnc2c(c1)N(C(=O)CN1C[C@@H](C)NC[C@@H]1CN1CC[C@@H](F)C1)CC2(C)C [Example 223, 1-[6-(1,1-Difluorobutyl)-3,3-dimethyl-1H,2H,3H-pyrrolo[3,2-b]pyridin-1-yl]-2-[(2R,5R)-2-{[(3R)-3-fluoropyrrolidin-1-yl]methyl}-5-methylpiperazin-1-yl]ethan-1-one hydrochloride] | 120 | 81 |  |  |  | inhibition at […] ([3]; Probe B, @ 0.012 μM): 62%
9 | C[C@@H]1CN(CC(=O)N2CC(C)(C)c3cnc(C(F)(F)c4ccccc4)cc32)[C@@H](CN2CCOCC2)CN1 [Example 224, 1-{6-[Difluoro(phenyl)methyl]-3,3-dimethyl-1H,2H,3H-pyrrolo[3,2-c]pyridin-1-yl}-2-[(2R,5R)-5-methyl-2-(morpholin-4-ylmethyl)piperazin-1-yl]ethan-1-one dihydrochloride] |  | 19 |  | 83 |  | inhibition at 0.04 µM [1]: 77%
10 | CC(C)CC(F)(F)c1cc2c(cn1)C(C)(C)CN2C(=O)CN1C[C@@H](C)NC[C@@H]1CN1CCCC1=O [Example 225, 1-{[(2R,5R)-1-{2-[6-(1,1-Difluoro-3-methylbutyl)-3,3-dimethyl-1H,2H,3H-pyrrolo[3,2-c]pyridin-1-yl]-2-oxoethyl}-5-methylpiperazin-2-yl]methyl}pyrrolidin-2-one hydrochloride] |  | 48 |  |  |  | inhibition at 0.04 µM ([1]; @ 0.04 μM): 62%; inhibition at […] ([3]; Probe B, @ 0.012 μM): 72%
11 | C[C@@H]1CN(CC(=O)N2CC(C)(C)c3ncc(C(F)(F)C4CCC4)cc32)[C@@H](CN2CCCC2=O)CN1 [Example 226, 1-{[(2R,5R)-1-{2-[6-(Cyclobutyldifluoromethyl)-3,3-dimethyl-1H,2H,3H-pyrrolo[3,2-b]pyridin-1-yl]-2-oxoethyl}-5-methylpiperazin-2-yl]methyl}pyrrolidin-2-one dihydrochloride] | 46 |  | < 1000 |  | 400 | IC50 [3, 5]: 21 nM
12 | CCCC(F)(F)c1cc2c(cn1)C(C)(C)CN2C(=O)CN1C[C@@H](C)NC[C@@H]1CN1CCCC1=O [Example 227, 1-{[(2R,5R)-1-{2-[6-(1,1-Difluorobutyl)-3,3-dimethyl-1H,2H,3H-pyrrolo[3,2-c]pyridin-1-yl]-2-oxoethyl}-5-methylpiperazin-2-yl]methyl}pyrrolidin-2-one hydrochloride] |  | 27 |  |  |  | inhibition at 0.04 µM ([1]; @ 0.04 μM): 60%; inhibition at […] ([3]; Probe B, @ 0.012 μM): 78%
13 | C[C@@H]1CN(CC(=O)N2CC(C)(C)c3ncc(C(C)(F)F)cc32)[C@@H](CN2CCN(C)C(=O)C2)CN1 [Example 228, 4-{[(2R,5R)-1-{2-[6-(1,1-Difluoroethyl)-3,3-dimethyl-1H,2H,3H-pyrrolo[3,2-b]pyridin-1-yl]-2-oxoethyl}-5-methylpiperazin-2-yl]methyl}-1-methylpiperazin-2-one dihydrochloride] | 99 |  | < 1000 |  | 680 | IC50 [3, 5]: 24 nM
14 | CC(C)CC(F)(F)c1cc2c(cn1)C(C)(C)CN2C(=O)CN1C[C@@H](C)NC[C@@H]1CN1CCOCC1 [Example 229, 1-[6-(1,1-Difluoro-3-methylbutyl)-3,3-dimethyl-1H,2H,3H-pyrrolo[3,2-c]pyridin-1-yl]-2-[(2R,5R)-5-methyl-2-(morpholin-4-ylmethyl)piperazin-1-yl]ethan-1-one hydrochloride] |  | 38 |  |  |  | inhibition at 0.04 µM ([1]; @ 0.04 μM): 53%; inhibition at […] ([3]; Probe B, @ 0.012 μM): 73%
15 | C[C@@H]1CN(CC(=O)N2CC(C)(C)c3ncc(C(F)(F)CC4CC4)cc32)[C@@H](CN2CCCC2=O)CN1 [Example 230, 1-{[(2R,5R)-1-{2-[6-(2-Cyclopropyl-1,1-difluoroethyl)-3,3-dimethyl-1H,2H,3H-pyrrolo[3,2-b]pyridin-1-yl]-2-oxoethyl}-5-methylpiperazin-2-yl]methyl}pyrrolidin-2-one formate] |  | 110 |  | 60 |  | inhibition at 0.04 µM [1]: 53%
